# Source: patent US7115633B2, “Benzosuberonylpiperdine compounds as analgesics” (GlaxoSmithKline S.p.A., priority 2000, dated 2006)
row,melting point [°C],SMILES
1,> 250,Cc1cccc(C2CCN(C[C@H]3CCc4c(Br)cccc4[C@H](O)C3)CC2)c1.Cl (racemic)
2,245 to 247,Cl.O[C@@H]1C[C@H](CN2CCC(c3ccccc3Cl)CC2)CCc2c(F)cccc21 (racemic)
3,231 to 233,Cc1ccccc1C1CCN(CC2CCc3c(F)cccc3C(O)C2)CC1.Cl (racemic)
4,> 250,Cc1cccc(C2CCN(C[C@@H]3CCc4c(C)cccc4[C@H](O)C3)CC2)c1.Cl (racemic)
5,> 250,Cc1cccc2c1CC[C@@H](CN1CCC(c3ccccc3Cl)CC1)C[C@H]2O.Cl (racemic)
